Assay results: patent US5681954A, “Piperazine derivatives” (Daiichi Pharmaceutical Co., Ltd., priority 1993, dated 1997)

Columns and labels:
[1] = target: T1, Ca/Calmodulin-Dependent PDE (Bos taurus, UniProt P62157); assay: Calmodulin (CaM) inhibitory activity: inhibition of CaM-potentiated cyclic nucleotide phosphodiesterase (PDE); format: biochemical; conditions: CaM and PDE from bovine brain, [3H]-cGMP, 30° C., 10 minutes, pH 7.5; read-out: IC50 (concentration showing 50% inhibition of PDE activity potentiated by CaM)
T1 construct: CaM from bovine brain; from tissue; host or cells: bovine brain

[2] = system: Nitrogen-induced Hypoxia Model in Mouse; assay: Activity on Nitrogen-induced Hypoxia Model in Mouse; format: in vivo; conditions: 30 mg/kg, p.o., 60 minutes before nitrogen, over control group (100%)
Method: Nine to ten mice per group were each orally given […] of a test compound. After 60 minutes from the administration, each mouse was put in a 500 ml-volume transparent container having a vent hole; and nitrogen gas was introduced into the container at a rate of 5000 ml/min. The time from the start of nitrogen introduction to respiratory standstill was measured, and a rate of increase of the time over that of a control group (100%) was obtained.

| IC50 [1] | Compound | Rate of Increase of Survival Time [2] |
| --- | --- | --- |
| 5.5 µM | COc1cc2c(CCN3CCN(c4cccc(Cl)c4C)CC3)nn(Cc3c[nH]cn3)c2cc1OC [Example 23, 3-(2-(4-(3-Chloro-2-methylphenyl)-1-piperazinyl)ethyl)-5,6-dimethoxy-1-(4-imidazolylmethyl)-1H-indazole] |  |
| 9.4 µM | COc1cc2[nH]nc(CCN3CCN(c4cccc(Cl)c4C)CC3)c2cc1OC [Example 81] |  |

| Compound | IC50 [1] | Rate of Increase of Survival Time [2] |
| --- | --- | --- |
| COc1ccc(Cn2nc(CCN3CCN(c4cccc(Cl)c4C)CC3)c3cc(OC)c(OC)cc32)cc1OC [Example 17, 3-(2-(4-(3-Chloro-2-methylphenyl)-1-piperazinyl)ethyl)-5,6-dimethoxy-1-(3,4-dimethoxybenzyl)-1H-indazole] | 3.1 µM | 19.2% |
